In paper PMC6143625, “A high throughput screen for next-generation leads targeting malaria parasite transmission” (Nature Communications, 2018):

Columns and labels:
[1] = tested on: P. falciparum stage V female gametocytes (female gamete formation); assay: P. falciparum dual gamete formation assay (Pf DGFA), female readout (Pfs25 expression), 48 h carry-over format; type: cell-based, Plasmodium falciparum NF54; conditions: primary screen, 2 uM, 48 h incubation, single replicate
[2] = tested on: P. falciparum stage V male gametocytes (male gamete formation); assay: P. falciparum dual gamete formation assay (Pf DGFA), male readout (exflagellation), 48 h carry-over format; type: cell-based, Plasmodium falciparum NF54; conditions: primary screen, 2 uM, 48 h incubation, single replicate

| Compound | %Inhibition Female @2uM [1] [%] | %Inhibition Male @2uM [2] [%] |
| --- | --- | --- |
| CN(C)Cc1nnc(C2CCN(c3ncccn3)CC2)n1C1CC1 [DDD01250187] | <30 | 31.65 |
| CCc1ccccc1C(=O)N1C[C@@H](CN2CCOCC2)[C@@H](CO)C1 [DDD01250732] | <30 | 143.16 |
| O=C(c1ccccn1)N1C[C@H]2CC[C@@H](C1)N(C(=O)CCC1CCCC1)C2 [DDD01250927] | <30 | 61.83 |
| O=C(c1ccccc1)N1C[C@H]2CC[C@@H](C1)N(Cc1cc(F)ccc1Cl)C2 [DDD01251068] | <30 | 176.84 |
| Cc1oc(-c2ccoc2)nc1CN1CCC[C@H]1CO [DDD01251548] | <30 | 131.44 |
| CN(C)c1nccnc1N1CC[C@@]2(O)CCNC[C@H]2C1 [DDD01251755] | 48.40 | <30 |
| COc1ccc(CN2CCC3(CCCNC3)C2)cc1Cn1cccn1 (stereo not shown) [DDD01251771] | <30 | 126.32 |
| CN(C)C(C(=O)N1CC(Oc2ccccc2F)C1)c1ccc(F)cc1 (stereo not shown) [DDD01251854] | 43.98 | <30 |
| Cc1ocnc1C(=O)N1CCC(c2nccn2Cc2ccncc2)CC1 [DDD01252089] | <30 | 78.03 |
| CN(C)c1ccccc1C(=O)N1CCOC2(CNCCOC2)C1 (stereo not shown) [DDD01252114] | <30 | 137.91 |
| COc1cccc2c1OCC(C(=O)N1CCN(C3CCCC3)C(=O)C1)C2 (stereo not shown) [DDD01252180] | <30 | 176.84 |
| COc1ccc(-c2cc(CNc3ncnc4c3CCNCC4)no2)cc1 [DDD01252258] | 36.22 | <30 |
| CN(C)c1nc2c(c(N(C)C)n1)CCN(C(=O)CN1C[C@H]3CC[C@@H]1C3)C2 [DDD01252415] | 30.39 | <30 |
| Cc1c(NCc2cccnc2)cccc1C(=O)N1CCC(N(C)C)C1 (stereo not shown) [DDD01252445] | <30 | 39.91 |
| c1ccn2c(C3CCCN(c4ncnc5c4CCNC5)C3)nnc2c1 (stereo not shown) [DDD01252518] | 33.03 | <30 |
| O=C(c1cccc(S(=O)(=O)NCCc2ccccn2)c1)N1CCOCC1 [DDD01252530] | <30 | 176.84 |
| CN(C)Cc1nnc(C2CCCN(Cc3ccc(Cl)s3)C2)n1C (stereo not shown) [DDD01252876] | <30 | 184.62 |
| Cc1cc(CC(=O)N2CCN(CC(C)C)[C@@H]3CS(=O)(=O)C[C@@H]32)ccc1F [DDD01253102] | <30 | 30.33 |
| Cc1ccc(-c2nc(CNC(C)CCO)[nH]c2-c2ccccn2)cc1 (stereo not shown) [DDD01253542] | 47.40 | 59.22 |
| CN1CC2(CCN(C(=O)c3ccc(=O)n(C)c3)CC2)CC1=O [DDD01253564] | 30.30 | <30 |
| CS(=O)(=O)N1C[C@H]2CC[C@@H](C1)N(C(=O)CCn1cnc3ccccc31)C2 [DDD01253654] | <30 | 35.49 |
| Cc1cc(NCc2ccc(O)cc2)n2nc(C)cc2n1 [DDD01253811] | 99.46 | <30 |

| Compound | %Inhibition Female @2uM [1] [%] | %Inhibition Male @2uM [2] [%] |
| --- | --- | --- |
| CC(C)OC(=O)N1CCC(Cc2cccc(C(N)=O)c2)C1 (stereo not shown) [DDD01254183] | <30 | 132.02 |
| CSc1ccc(C(=O)N2CCCC(Nc3ccc(F)cc3)C2)cc1 (stereo not shown) [DDD01254674] | <30 | 162.04 |
| Cc1oc(-c2ccoc2)nc1CN1CCCCC1CCc1ccccc1 (stereo not shown) [DDD01254868] | <30 | 143.16 |
| O=C(CSc1ccncc1)N1CCC2(CC1)c1ccccc1CC2O (stereo not shown) [DDD01255239] | <30 | 143.16 |
| CN(Cc1nccn1C)C1CCCN(CCCc2ccccc2)C1 (stereo not shown) [DDD01255359] | <30 | 61.22 |
| CCc1nnc(CNC(=O)CCN2CCN(c3cccc(C)c3)CC2)s1 [DDD01255634] | <30 | 133.78 |
| Cc1ccc(CN2CCN(C(=O)c3ccc(CO)cc3)C(C)C2=O)cc1 (stereo not shown) [DDD01255654] | 38.25 | <30 |
| COC(=O)C1CCN(C(=O)c2cccc(NS(C)(=O)=O)c2C)CC1 [DDD01255952] | <30 | 126.32 |
| COc1cccc2c1OCC(C(=O)N1CCC(NS(C)(=O)=O)CC1)C2 (stereo not shown) [DDD01255971] | <30 | 160.00 |
| Cc1ccccc1C(=O)Nc1ccc(OC2CCN(C)CC2)cc1 [DDD01256105] | <30 | 177.06 |
| Cc1cnn(CCCN2C(=O)CCc3ccccc32)c1 [DDD01256166] | <30 | 31.82 |
| Cc1ccc(CN2CCCC(c3nnc(CN4CCCC4)n3C)C2)s1 (stereo not shown) [DDD01256510] | <30 | 109.47 |
| COCCN(C)CCN1CC2(CCN(C3CCOCC3)CC2)OC1=O [DDD01256592] | <30 | 44.84 |
| O=C(O)CCc1cc2n(n1)CCCN(C(=O)c1cc3ccccc3s1)C2 [DDD01256606] | 30.77 | <30 |
| CC(C)(CNC1CCCN(Cc2ccccn2)C1)CN1CCOCC1 (stereo not shown) [DDD01256674] | 31.10 | <30 |
| Cc1cc(C(=O)N2CCC(c3nccn3Cc3ccccn3)CC2)no1 [DDD01256728] | <30 | 88.77 |
| CCOCC(=O)N1CCC(c2nccn2CC2CC2)CC1 [DDD01256942] | <30 | 104.28 |
| CN(C)C(=O)N1C[C@H]2CC[C@@H](C1)N(C/C=C/c1ccc(F)cc1)C2 [DDD01256992] | 32.94 | <30 |
| COc1ccc(C(=O)N2CCOC3(CNCCOC3)C2)c(OC)n1 (stereo not shown) [DDD01257050] | <30 | 126.32 |
| CN(Cc1ccccc1CN1CCCC1)C(=O)c1c[nH]c(=O)[nH]1 [DDD01257093] | 34.04 | <30 |
| Cc1ccc(F)cc1CC(=O)N(CCN1CCOCC1)Cc1ccco1 [DDD01257151] | 36.90 | <30 |
| O=C1N(CCC2CCCCC2)CCCC1(O)CNCCc1ccccc1 (stereo not shown) [DDD01257222] | <30 | 147.75 |

| Compound | %Inhibition Female @2uM [1] [%] | %Inhibition Male @2uM [2] [%] |
| --- | --- | --- |
| CCn1cc(CN(C)C(=O)c2cccc(CCC(C)(C)O)c2)cn1 [DDD01257573] | 32.19 | <30 |
| CN(CCO)Cc1nnc(C2CCN(C3CCCCC3)CC2)n1C [DDD01257771] | 30.00 | <30 |
| COc1ccc(C(=O)C2CCCN(Cc3ccncc3)C2)c(OC)c1 (stereo not shown) [DDD01257881] | 31.13 | <30 |
| c1cn(Cc2nnc(C3CCN(c4nccs4)CC3)n2C2CC2)cn1 [DDD01257895] | 34.43 | <30 |
| Cc1nn(C)cc1C(=O)N1C[C@@H]2CC[C@H]1CN(S(=O)(=O)N(C)C)C2 [DDD01257957] | 39.59 | <30 |
| Cc1cc(C)nc(N2Cc3cnn(Cc4ccc(F)cc4)c3C2)n1 [DDD01258067] | 46.44 | <30 |
| COc1cc(C)c(CN2CCC3(CC2)C(C(=O)O)CC(=O)N3C)cc1C (stereo not shown) [DDD01258170] | 46.51 | <30 |
| COc1cccc(S(=O)(=O)NC(=O)CC2CCCO2)c1 (stereo not shown) [DDD01295262] | 46.83 | <30 |
| Cc1nn(C)c(C)c1CCC(=O)N1CCCC(n2cccn2)C1 (stereo not shown) [DDD01296064] | <30 | 47.51 |
| Cc1cn2c(n1)CCC(NC(=O)Cn1cncn1)C2 (stereo not shown) [DDD01296301] | 57.78 | <30 |
| NC(=O)COc1ccc(C(=O)N2CCCC(n3ccnc3)C2)cc1 (stereo not shown) [DDD01296946] | 40.74 | <30 |
| Cc1cnn(CC2CCCN2Cc2nnc(C(C)C)o2)c1 (stereo not shown) [DDD01296988] | 33.35 | 60.45 |
| CN(Cc1nnc(C2CC2)n1C)C1CCN(Cc2nccn2C)C1 (stereo not shown) [DDD01296990] | <30 | 57.47 |
| CCS(=O)(=O)N1CCC(NC(=O)c2cc(C)ccc2O)CC1 [DDD01297269] | 56.83 | <30 |
| CC(C)CCc1nc(CNCC2CCCN2c2cccnn2)cs1 (stereo not shown) [DDD01297850] | 39.30 | <30 |
| CCc1nnc2n1CCN(C(=O)c1nc(-c3ccco3)sc1C)C2 [DDD01298399] | <30 | 30.87 |
| CN1CCOC(CNCc2coc(-c3ccccc3Cl)n2)C1 (stereo not shown) [DDD01298713] | <30 | 34.66 |
| O=C(c1ccc(-n2ccnc2)cc1)N1CCCC(n2ccnc2)C1 (stereo not shown) [DDD01298772] | 36.32 | <30 |
| Cc1cc(NC(=O)CN2CCc3cnc(C(C)C)nc3C2)on1 [DDD01298964] | 41.23 | <30 |
| Cc1cc(C)cc(OCCN2CCn3c(C)nnc3C2)c1 [DDD01299569] | 31.60 | <30 |
| CCN1CCN(Cc2csc(C(C)C)n2)CC1 [DDD01301366] | <30 | 30.44 |
